Publication PMC9977887, “Crocodile defensin (CpoBD13) antifungal activity via pH-dependent phospholipid targeting and membrane disruption” (Nature Communications, 2023)
Read-outs that look alike come from different tables or passages of the source. Where no end group is shown, it is not given here.

Columns and labels:
C. albicans ATCC 10231 = experiment: Fungal growth inhibition assay; assay type: cell-based, Candida albicans
Procedure: For fungal growth assays, overnight cultures of C. albicans ATCC 10231 cells (yeast peptone dextrose broth, 30°C, shaking at 160 rpm) were pelleted (2000 g, 5 min), washed once in 0.5× potato dextrose broth (BD Biosciences, Franklin Lakes, NJ) and finally resuspended in the same media. Cells were seeded onto a 96-well plate (400 cells, 50 µL) and treated with an equal volume of varying concentrations of defensin in 0.5× potato dextrose broth. After incubating the samples (24 h, 30 °C), the plates were shaken to distribute the cells and growth was determined by performing a 9-well scan (600 nm) using a Spectramax M5e microplate reader (Molecular Devices, San Jose, CA). For assays testing defensin salt tolerance, C. albicans cells were instead resuspended in 1x potato dextrose broth and treated with an equal volume of CpoBD13 + NaCl solution at their intended concentrations. Propidium iodide (PI) uptake assays were performed by preparing the cells as per the standard growth inhibition assay however they were instead seeded onto a U-bottom 96-well plate (50,000 cells, 25 µL). […] For PI uptake experiments performed at a specific pH, the same method was followed with the exception that cells were resuspended in 1× potato dextrose broth while defensin titrations were diluted in 40 mM MES buffer at the intended pH. An example PI uptake gating strategy is presented in Supplementary Fig. 1d.

PC3 cells = experiment: MTT/MTS cell viability assay; assay type: cell-based, human; details: 48 h, at the assessed concentrations
Source text: Human epithelial cervical cancer (HeLa, ATCC, CCL-2), prostate cancer (PC3, ATCC, CRL-1435) and histiocytic lymphoma (U937, ATCC, CRL-1593.2) cells were obtained from the American Type Culture Collection (Gaithersburg, Maryland) and cultured in RPMI-1640 medium (Thermo Fisher Scientific, Waltham, MA) supplemented with 5–10% (v/v) foetal bovine serum (FBS), 100 U/mL penicillin and 100 U/mL streptomycin (Invitrogen, Carlsbad, CA). Adult human dermal fibroblasts (AHDF, Lonza, CC-2511) cells were obtained from Lonza (Basel, Switzerland) and cultured in Dulbecco’s Modified Eagle Medium (DMEM) (Thermo Fisher Scientific) supplemented with 10% (v/v) FBS, 100 U/mL penicillin and 100 U/mL streptomycin. Human umbilical vein epithelial (HUVEC, Lonza, CC-2519) cells were obtained from Lonza and cultured in EBM-2 medium supplemented with EGM-2 SingleQuots (Lonza). All cell lines were maintained at 37 °C in a humidified incubator with 5% CO2.
Cell viability assays were performed using MTT/MTS as previously described[8].

[1] = Calcein-encapsulated liposome lysis assay; assay type: biochemical
Procedure: Liposomes were prepared using natural chicken egg L-α-phophatidylcholine and L-α-phosphatidic acid dissolved in chloroform (Avanti Polar Lipids), and liposome pulldowns (at pH 7.4) and calcein-encapsulated liposome lysis assays were performed as previously described. For liposome pulldowns performed at pH 5.5, the same protocol was used with minor variations. The desiccated lipid films were resuspended in 20 mM MES pH 7.4 and were washed in the same buffer during the centrifugation process. After the final wash step, the liposome pellets were resuspended in 20 mM MES pH 5.5 and incubated with CpoBD13 or mutants thereof (also prepared in the same acidic buffer).

Substance: CpoBD13: saltwater crocodile β-defensin 13, histidine-rich, three disulphide bonds, recombinantly expressed in Pichia pastoris (NGSYYSTLQCRNNHGHCRRLCFHGEQWIGNCNGRHQHCCK; disulfide (positions not given here); also: three disulphide bonds, pairings not given here)
- IC50 (C. albicans ATCC 10231; 24 h, Replicate 1, unit not in table, µM, read-out: IC50): 4.19 µM
- IC50 (C. albicans ATCC 10231; 24 h, Replicate 2, unit not in table, µM, read-out: IC50): 4.11 µM
- IC50 (C. albicans ATCC 10231; 24 h, Replicate 3, unit not in table, µM, read-out: IC50): 4.1 µM
- IC50 (C. albicans ATCC 10231; 24 h, mean, n = 3, assessed range 0–10 µM, read-out: IC50 of fungal growth inhibition): 4.1 µM
- IC50 (C. albicans ATCC 10231; Replicate 1, read-out: IC50): 5.39 µM
- IC50 (C. albicans ATCC 10231; Replicate 2, read-out: IC50): 5.34 µM
- IC50 (C. albicans ATCC 10231; Replicate 3, read-out: IC50): 5.46 µM
- effect on cell viability (PC3 cells): did not affect the viability
- lysis of PC:PA liposomes relative to PC only liposomes ([1]; 20 µM, 30 min, calcein release): significant increase in the lysis
- Lysis (%) ([1]; PC liposomes, replicate 1): 54.3884%
- Lysis (%) ([1]; PC liposomes, replicate 2): 55.3559%
- Lysis (%) ([1]; PC liposomes, replicate 3): 54.0992%
- Lysis (%) ([1]; PC:PA liposomes, replicate 1): 67.3935%
- Lysis (%) ([1]; PC:PA liposomes, replicate 2): 66.6111%
- Lysis (%) ([1]; PC:PA liposomes, replicate 3): 65.2527%
- Lysis (%) ([1]; PC:PA, 20 µM, 0 min, replicate 1): 25.7371%
- Lysis (%) ([1]; PC:PA, 20 µM, 0 min, replicate 2): 19.5617%
- Lysis (%) ([1]; PC:PA, 20 µM, 0 min, replicate 3): 31.0288%
- Lysis (%) ([1]; PC:PA, 20 µM, 2 min, replicate 1): 44.3847%
- Lysis (%) ([1]; PC:PA, 20 µM, 2 min, replicate 2): 47.8762%
- Lysis (%) ([1]; PC:PA, 20 µM, 2 min, replicate 3): 47.362%
- Lysis (%) ([1]; PC:PA, 20 µM, 4 min, replicate 1): 50.7757%
- Lysis (%) ([1]; PC:PA, 20 µM, 4 min, replicate 2): 55.3375%
- Lysis (%) ([1]; PC:PA, 20 µM, 4 min, replicate 3): 52.3336%
- Lysis (%) ([1]; PC:PA, 20 µM, 6 min, replicate 1): 56.1428%
- Lysis (%) ([1]; PC:PA, 20 µM, 6 min, replicate 2): 57.6724%
- Lysis (%) ([1]; PC:PA, 20 µM, 6 min, replicate 3): 56.2525%
- Lysis (%) ([1]; PC:PA, 20 µM, 8 min, replicate 1): 57.9433%
- Lysis (%) ([1]; PC:PA, 20 µM, 8 min, replicate 2): 61.2343%
- Lysis (%) ([1]; PC:PA, 20 µM, 8 min, replicate 3): 57.4403%
- Lysis (%) ([1]; PC:PA, 20 µM, 10 min, replicate 1): 60.1091%
- Lysis (%) ([1]; PC:PA, 20 µM, 10 min, replicate 2): 61.4149%
- Lysis (%) ([1]; PC:PA, 20 µM, 10 min, replicate 3): 58.1894%
- Lysis (%) ([1]; PC:PA, 20 µM, 12 min, replicate 1): 61.5771%
- Lysis (%) ([1]; PC:PA, 20 µM, 12 min, replicate 2): 62.8368%
- Lysis (%) ([1]; PC:PA, 20 µM, 12 min, replicate 3): 59.7071%
- Lysis (%) ([1]; PC:PA, 20 µM, 14 min, replicate 1): 62.1444%
- Lysis (%) ([1]; PC:PA, 20 µM, 14 min, replicate 2): 63.0568%
- Lysis (%) ([1]; PC:PA, 20 µM, 14 min, replicate 3): 60.7639%
- Lysis (%) ([1]; PC:PA, 20 µM, 16 min, replicate 1): 64.0158%
- Lysis (%) ([1]; PC:PA, 20 µM, 16 min, replicate 2): 63.5735%
- Lysis (%) ([1]; PC:PA, 20 µM, 16 min, replicate 3): 61.3601%
- Lysis (%) ([1]; PC:PA, 20 µM, 18 min, replicate 1): 65.2175%
- Lysis (%) ([1]; PC:PA, 20 µM, 18 min, replicate 2): 63.6472%
- Lysis (%) ([1]; PC:PA, 20 µM, 18 min, replicate 3): 61.6924%
- Lysis (%) ([1]; PC:PA, 20 µM, 20 min, replicate 1): 64.1335%
- Lysis (%) ([1]; PC:PA, 20 µM, 20 min, replicate 2): 65.2803%
- Lysis (%) ([1]; PC:PA, 20 µM, 20 min, replicate 3): 62.4881%
- Lysis (%) ([1]; PC:PA, 20 µM, 22 min, replicate 1): 64.7756%
- Lysis (%) ([1]; PC:PA, 20 µM, 22 min, replicate 2): 65.3585%
- Lysis (%) ([1]; PC:PA, 20 µM, 22 min, replicate 3): 63.4838%
- Lysis (%) ([1]; PC:PA, 20 µM, 24 min, replicate 1): 65.4459%
- Lysis (%) ([1]; PC:PA, 20 µM, 24 min, replicate 2): 66.2461%
- Lysis (%) ([1]; PC:PA, 20 µM, 24 min, replicate 3): 64.0406%
- Lysis (%) ([1]; PC:PA, 20 µM, 26 min, replicate 1): 65.9416%
- Lysis (%) ([1]; PC:PA, 20 µM, 26 min, replicate 2): 66.5138%
- Lysis (%) ([1]; PC:PA, 20 µM, 26 min, replicate 3): 64.3943%
- Lysis (%) ([1]; PC:PA, 20 µM, 28 min, replicate 1): 66.2501%
- Lysis (%) ([1]; PC:PA, 20 µM, 28 min, replicate 2): 65.4475%
- Lysis (%) ([1]; PC:PA, 20 µM, 28 min, replicate 3): 64.7127%
- Lysis (%) ([1]; PC:PA, 20 µM, 30 min, replicate 1): 67.3935%
- Lysis (%) ([1]; PC:PA, 20 µM, 30 min, replicate 2): 66.6111%
- Lysis (%) ([1]; PC:PA, 20 µM, 30 min, replicate 3): 65.2527%
- Lysis (%) ([1]; PC, 20 µM, 0 min, replicate 1): 15.1234%
- Lysis (%) ([1]; PC, 20 µM, 0 min, replicate 2): 15.1242%
- Lysis (%) ([1]; PC, 20 µM, 0 min, replicate 3): 13.8859%
- Lysis (%) ([1]; PC, 20 µM, 2 min, replicate 1): 39.0447%
- Lysis (%) ([1]; PC, 20 µM, 2 min, replicate 2): 32.4816%
- Lysis (%) ([1]; PC, 20 µM, 2 min, replicate 3): 30.5639%
- Lysis (%) ([1]; PC, 20 µM, 4 min, replicate 1): 45.2997%
- Lysis (%) ([1]; PC, 20 µM, 4 min, replicate 2): 38.3127%
- Lysis (%) ([1]; PC, 20 µM, 4 min, replicate 3): 36.68%
- Lysis (%) ([1]; PC, 20 µM, 6 min, replicate 1): 48.9071%
- Lysis (%) ([1]; PC, 20 µM, 6 min, replicate 2): 41.9281%
- Lysis (%) ([1]; PC, 20 µM, 6 min, replicate 3): 41.2305%
- Lysis (%) ([1]; PC, 20 µM, 8 min, replicate 1): 49.7649%
- Lysis (%) ([1]; PC, 20 µM, 8 min, replicate 2): 44.0474%
- Lysis (%) ([1]; PC, 20 µM, 8 min, replicate 3): 43.6445%
- Lysis (%) ([1]; PC, 20 µM, 10 min, replicate 1): 51.7674%
- Lysis (%) ([1]; PC, 20 µM, 10 min, replicate 2): 44.7293%
- Lysis (%) ([1]; PC, 20 µM, 10 min, replicate 3): 45.2138%
- Lysis (%) ([1]; PC, 20 µM, 12 min, replicate 1): 52.4795%
- Lysis (%) ([1]; PC, 20 µM, 12 min, replicate 2): 46.5217%
- Lysis (%) ([1]; PC, 20 µM, 12 min, replicate 3): 46.4513%
- Lysis (%) ([1]; PC, 20 µM, 14 min, replicate 1): 52.8236%
- Lysis (%) ([1]; PC, 20 µM, 14 min, replicate 2): 47.6803%
- Lysis (%) ([1]; PC, 20 µM, 14 min, replicate 3): 47.9678%
- Lysis (%) ([1]; PC, 20 µM, 16 min, replicate 1): 54.9403%
- Lysis (%) ([1]; PC, 20 µM, 16 min, replicate 2): 49.0986%
- Lysis (%) ([1]; PC, 20 µM, 16 min, replicate 3): 49.0311%
- Lysis (%) ([1]; PC, 20 µM, 18 min, replicate 1): 53.0929%
- Lysis (%) ([1]; PC, 20 µM, 18 min, replicate 2): 50.179%
- Lysis (%) ([1]; PC, 20 µM, 18 min, replicate 3): 50.039%
- Lysis (%) ([1]; PC, 20 µM, 20 min, replicate 1): 53.041%
- Lysis (%) ([1]; PC, 20 µM, 20 min, replicate 2): 50.8527%
- Lysis (%) ([1]; PC, 20 µM, 20 min, replicate 3): 51.0255%
- Lysis (%) ([1]; PC, 20 µM, 22 min, replicate 1): 54.0904%
- Lysis (%) ([1]; PC, 20 µM, 22 min, replicate 2): 52.2587%
- Lysis (%) ([1]; PC, 20 µM, 22 min, replicate 3): 51.6328%
- Lysis (%) ([1]; PC, 20 µM, 24 min, replicate 1): 54.3794%
- Lysis (%) ([1]; PC, 20 µM, 24 min, replicate 2): 53.0954%
- Lysis (%) ([1]; PC, 20 µM, 24 min, replicate 3): 52.0331%
- Lysis (%) ([1]; PC, 20 µM, 26 min, replicate 1): 55.6275%
- Lysis (%) ([1]; PC, 20 µM, 26 min, replicate 2): 53.8088%
- Lysis (%) ([1]; PC, 20 µM, 26 min, replicate 3): 52.9179%
- Lysis (%) ([1]; PC, 20 µM, 28 min, replicate 1): 53.4363%
- Lysis (%) ([1]; PC, 20 µM, 28 min, replicate 2): 55.2629%
- Lysis (%) ([1]; PC, 20 µM, 28 min, replicate 3): 53.0065%
- Lysis (%) ([1]; PC, 20 µM, 30 min, replicate 1): 54.3884%
- Lysis (%) ([1]; PC, 20 µM, 30 min, replicate 2): 55.3559%
- Lysis (%) ([1]; PC, 20 µM, 30 min, replicate 3): 54.0992%
